According to patent publication US20240382482A1, “PLASMA KALLIKREIN INHIBITORS” (TAKEDA PHARMACEUTICAL COMPANY LIMITED, priority 2021, published 2024):
Counter-ions that a name gives are not always drawn.

Assays:
[1] = target: human activated kallikrein enzyme (Homo sapiens, UniProt P03952); assay: Inhibition of human activated kallikrein enzyme, fluorogenic peptide substrate assay (500 pM enzyme format); format: biochemical; conditions: 500 pM activated kallikrein, 300 μM PFR-AMC substrate, 30 min preincubation, 10 min reaction, room temperature; read-out: Primary Dose Response Assay: Average EC50
Chain of human activated kallikrein enzyme (P03952 391-638 limits assumed): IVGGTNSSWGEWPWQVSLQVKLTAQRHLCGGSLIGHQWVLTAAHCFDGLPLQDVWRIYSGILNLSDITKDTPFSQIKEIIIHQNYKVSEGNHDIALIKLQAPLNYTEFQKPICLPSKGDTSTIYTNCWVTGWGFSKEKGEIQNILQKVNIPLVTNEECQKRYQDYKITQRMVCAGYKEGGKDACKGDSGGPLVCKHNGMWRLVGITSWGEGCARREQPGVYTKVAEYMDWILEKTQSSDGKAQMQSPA
Chain of human activated kallikrein enzyme (P03952 20-390 partner limits assumed): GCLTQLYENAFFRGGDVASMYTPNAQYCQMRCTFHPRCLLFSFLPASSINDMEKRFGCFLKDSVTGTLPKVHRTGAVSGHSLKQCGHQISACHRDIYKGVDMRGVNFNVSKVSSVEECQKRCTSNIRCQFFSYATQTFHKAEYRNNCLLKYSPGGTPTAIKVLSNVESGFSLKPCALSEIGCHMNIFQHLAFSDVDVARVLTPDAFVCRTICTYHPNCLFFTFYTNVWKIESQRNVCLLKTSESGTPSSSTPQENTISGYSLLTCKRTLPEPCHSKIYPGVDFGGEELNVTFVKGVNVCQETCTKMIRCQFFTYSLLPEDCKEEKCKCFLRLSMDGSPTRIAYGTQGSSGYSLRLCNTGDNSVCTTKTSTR
Summary of the method: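 500 pM enzyme preincubated 30 min at room temperature with inhibitor in 20 mM Tris pH 7.5, 150 mM NaCl, 1 mM EDTA, 0.1% PEG-400, 0.1% Triton X-100. Reaction started with 300 μM PFR-AMC and run 10 min at room temperature. AMC fluorescence read at ex 380/em 460 nm, and EC50 values reported as ranges.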

[2] = target: T1, plasma kallikrein (Homo sapiens, UniProt P03952); assay: Neat human plasma assay (fluorogenic peptide), contact pathway-activated plasma; format: biochemical; conditions: sodium citrate human plasma (78% final), 10 nM human FXIIa, 100 μM PFR-AMC, room temperature
T1 construct: added to sodium citrate collected human or rat plasma in a 96-well microplate; from tissue
T1 sequence (P03952 391-638 limits assumed): as the sequence (P03952 391-638 limits assumed) above
T1 sequence (P03952 20-390 partner limits assumed): as the sequence (P03952 20-390 partner limits assumed) above
Method: To analyze inhibition of plasma kallikrein in an ex vivo setting, the potency of compounds was measure in contact pathway-activated plasma assays. In a fluorogenic peptide substrate assay, test compounds dissolved in DMSO were added to sodium citrate collected human or rat plasma in a 96-well microplate. Alternatively, citrated plasma was collected from rats administered the compounds orally or by IV. 10 nM of human FXIIa (Enzyme Research Laboratories) diluted in PKa buffer (20 mM Tris-HCl, pH 7.5, 150 mM NaCl, 1 mM EDTA, 0.1% PEG-8000, and 0.1% Triton X-100) was added to the plasma, followed by the 100 μM of the profluorescent, synthetic plasma kallikrein substrate PFR-AMC (also diluted in PKa buffer). Final plasma concentration in the reaction was 78%. Fluorescence was immediately monitored by excitation/emission wavelengths of 360 nm/480 nm respectively over a period of 5 minutes in a microplate reader. The resulting linear increase in fluorescence emission (reflecting PKa proteolysis of PFR-AMC substrate) was fit to extract a proteolytic rate (fluorescent units over time), and this rate was subsequently plotted against compound inhibitor concentration. Resulting plots were fit to a standard 4-parameter IC50/IC90 equation to determine min/max values, IC50/90, and slope. All experimental steps were performed at room temperature.

Cc1cc(N)nc(C)c1CNc1cc(OCc2cn3cc(C4CC4)ccc3n2)ncn1 [Example 107, N-((6-amino-2,4-dimethylpyridin-3-yl)methyl)-6-((6-cyclopropylimidazo[1,2-a]pyridin-2-yl)methoxy)pyrimidin-4-amine] was tested. Which EC50 [1] did it give?
The EC50 was ≤ 5 nM.

What about the IC90 [2] of the same compound?
Its IC90 is 5000 to 25000 nM.

Which EC50 [1] does the source give for COc1ccc(-n2cnnn2)c(CNc2cc(NCc3cn4cc(C5CC5)ccc4n3)ncn2)c1F [Example 55, N^4-((6-cyclopropylimidazo[1,2-a]pyridin-2-yl)methyl)-N^6-(2-fluoro-3-methoxy-6-(1H-tetrazol-1-yl)benzyl)pyrimidine-4,6-diamine] here?
The EC50 was ≤ 5 nM.

What about the IC90 [2] of the same compound?
The IC90 was 500 to 5000 nM.

For O=C(Cc1ncn2ccc(Cl)cc12)Nc1cc(NCc2cn3cc(C4CC4)ccc3n2)ncn1 [Example 1, 2-(7-chloroimidazo[1,5-a]pyridin-1-yl)-N-(6-(((6-cyclopropylimidazo[1,2-a]pyridin-2-yl)methyl)amino)pyrimidin-4-yl)acetamide], which EC50 [1] is on record?
Its EC50 is ≤ 5 nM.

And the IC90 [2]?
Its IC90 is 500 to 5000 nM.

With O=C(Cc1ncn2ccc(Cl)cc12)Nc1cc(NCc2cn3cc(C4CC4)cc(CO)c3n2)ccn1 [Example 52, 2-(7-chloroimidazo[1,5-a]pyridin-1-yl)-N-(4-(((6-cyclopropyl-8-(hydroxymethyl)imidazo[1,2-a]pyridin-2-yl)methyl)amino)pyridin-2-yl)acetamide] as the compound, how does the EC50 [1] read?
The EC50 was ≤ 5 nM.

And the IC90 [2]?
The IC90 was ≤ 500 nM.

For Cc1cc(N)nc(C)c1CNc1cc(N2C[C@@H](O)C[C@@H]2c2cn3cc(C4CC4)ccc3n2)ncn1 [Example 135, (3S,5R)-1-(6-(((6-amino-2,4-dimethylpyridin-3-yl)methyl)amino)pyrimidin-4-yl)-5-(6-cyclopropylimidazo[1,2-a]pyridin-2-yl)pyrrolidin-3-ol], which EC50 [1] is on record?
Its EC50 is ≤ 5 nM.

And the IC90 [2]?
The IC90 was ≤ 500 nM.

How did the EC50 [1] turn out when Cc1cc(N)nc(C)c1CNc1cc(OCc2cn3cc(C4CC4)cc(C#N)c3n2)ncn1 [Example 112, 2-(((6-(((6-amino-2,4-dimethylpyridin-3-yl)methyl)amino)pyrimidin-4-yl)oxy)methyl)-6-cyclopropylimidazo[1,2-a]pyridine-8-carbonitrile] was run?
Its EC50 is ≤ 5 nM.

And the IC90 [2]?
Its IC90 is 500 to 5000 nM.

O=C(Cc1n[nH]c2ccc(Cl)cc12)Nc1cc(NCc2cn3cc(C4CC4)ccc3n2)ccn1 [Example 26, 2-(5-chloro-1H-indazol-3-yl)-N-(4-(((6-cyclopropylimidazo[1,2-a]pyridin-2-yl)methyl)amino)pyridin-2-yl)acetamide] was tested. Which EC50 [1] did it give?
The EC50 was ≤ 5 nM.

What about the IC90 [2] of the same compound?
Its IC90 is 5000 to 25000 nM.

How did the EC50 [1] turn out when O=C(Cc1ncn2ccc(Cl)cc12)Nc1cc(NCc2cn3cc(C4CC4)ccc3n2)cnn1 [Example 31, 2-(7-chloroimidazo[1,5-a]pyridin-1-yl)-N-(5-(((6-cyclopropylimidazo[1,2-a]pyridin-2-yl)methyl)amino)pyridazin-3-yl)acetamide] was run?
The EC50 was ≤ 5 nM.

What about the IC90 [2] of the same compound?
The IC90 was 500 to 5000 nM.

For CN1C(=O)CN(c2cc(C3CC3)cn3cc(CNc4cc(NC(=O)Cc5ncn6ncc(Cl)cc56)ncn4)nc23)C1=O [Example 141, 2-(3-chloroimidazo[1,5-b]pyridazin-5-yl)-N-(6-(((6-cyclopropyl-8-(3-methyl-2,4-dioxoimidazolidin-1-yl)imidazo[1,2-a]pyridin-2-yl)methyl)amino)pyrimidin-4-yl)acetamide], which EC50 [1] is on record?
Its EC50 is ≤ 5 nM.

What about the IC90 [2] of the same compound?
The IC90 was 500 to 5000 nM.

O=C(Cc1ncn2ccc(Cl)cc12)Nc1cc(NCc2cn3cc(C4CC4)cc(C4(O)COC4)c3n2)ncn1 [Example 14, 2-(7-chloroimidazo[1,5-a]pyridin-1-yl)-N-(6-(((6-cyclopropyl-8-(3-hydroxyoxetan-3-yl)imidazo[1,2-a]pyridin-2-yl)methyl)amino)pyrimidin-4-yl)acetamide] was tested. Which EC50 [1] did it give?
The EC50 was ≤ 5 nM.

What about the IC90 [2] of the same compound?
Its IC90 is ≤ 500 nM.

O=C(Cc1ncn2ccc(Cl)cc12)Nc1cc(NCc2cn3cc(C4CC4)cc(N4CCCC4=O)c3n2)ncn1 [Example 12, 2-(7-chloroimidazo[1,5-a]pyridin-1-yl)-N-(6-(((6-cyclopropyl-8-(2-oxopyrrolidin-1-yl)imidazo[1,2-a]pyridin-2-yl)methyl)amino)pyrimidin-4-yl)acetamide] was tested. Which EC50 [1] did it give?
Its EC50 is ≤ 5 nM.

What about the IC90 [2] of the same compound?
The IC90 was 500 to 5000 nM.

For CCOC(=O)NC(=N)c1cc(C)c(CNc2cc(OCc3cn4cc(C5CC5)ccc4n3)nc(C(=O)O)n2)c(C)c1 [Example 88, 4-((6-cyclopropylimidazo[1,2-a]pyridin-2-yl)methoxy)-6-(4-(N-(ethoxycarbonyl)carbamimidoyl)-2,6-dimethylbenzylamino)pyrimidine-2-carboxylic acid], which EC50 [1] is on record?
Its EC50 is ≤ 5 nM.

With C[C@H](c1cccc(Cl)c1)[C@@H](C)C(=O)Nc1cc(NCc2cn3cc(C4CC4)ccc3n2)ncn1 [Example 134, (2R,3S)-3-(3-chlorophenyl)-N-(6-(((6-cyclopropylimidazo[1,2-a]pyridin-2-yl)methyl)amino)pyrimidin-4-yl)-2-methylbutanamide] as the compound, how does the EC50 [1] read?
The EC50 was 500 to 9000 nM.

How did the EC50 [1] turn out when CC(O)(C(=O)Nc1cc(NCc2cn3cc(C4CC4)ccc3n2)ncn1)c1ncn2ccc(Cl)c(F)c12 (stereo not drawn) [Example 106, 2-(7-chloro-8-fluoroimidazo[1,5-a]pyridin-1-yl)-N-(6-(((6-cyclopropylimidazo[1,2-a]pyridin-2-yl)methyl)amino)pyrimidin-4-yl)-2-hydroxypropanamide] was run?
Its EC50 is > 9000 nM.

Cc1cc(C(=N)N)cc(C)c1CNc1cc(OCc2cn3cc(C4CC4)ccc3n2)nc(CCC(=O)O)n1 [Example 74, 3-(4-((4-carbamimidoyl-2,6-dimethylbenzyl)amino)-6-((6-cyclopropylimidazo[1,2-a]pyridin-2-yl)methoxy)pyrimidin-2-yl)propanoic acid formic acid salt] was tested. Which EC50 [1] did it give?
Its EC50 is ≤ 5 nM.

Which EC50 [1] does the source give for O=C(Cc1ncn2ccc(Cl)cc12)Nc1cncnc1NCc1cn2cc(C3CC3)cc(CO)c2n1 [Example 41, 2-(7-chloroimidazo[1,5-a]pyridin-1-yl)-N-(4-(((6-cyclopropyl-8-(hydroxymethyl)imidazo[1,2-a]pyridin-2-yl)methyl)amino)pyrimidin-5-yl)acetamide] here?
The EC50 was 5 to 50 nM.

With CCCCCCOC(=O)NC(=N)c1cc(C)c(CNc2cc(OCc3cn4cc(C5CC5)ccc4n3)nc(C(=O)OCC)n2)c(C)c1 [Example 87, ethyl 4-((6-cyclopropylimidazo[1,2-a]pyridin-2-yl)methoxy)-6-(4-(N-(hexyloxycarbonyl)carbamimidoyl)-2,6-dimethylbenzylamino)pyrimidine-2-carboxylate] as the compound, how does the EC50 [1] read?
The EC50 was 50 to 500 nM.

For O=C(Cc1ncn2ccc(Cl)cc12)Nc1cc(NCc2cn3cc(C4CC4)cc(C4(F)COC4)c3n2)ncn1 [Example 19, 2-(7-chloroimidazo[1,5-a]pyridin-1-yl)-N-(6-(((6-cyclopropyl-8-(3-fluorooxetan-3-yl)imidazo[1,2-a]pyridin-2-yl)methyl)amino)pyrimidin-4-yl)acetamide], which EC50 [1] is on record?
The EC50 was ≤ 5 nM.

For N#C/N=C(\NCc1cccc(Cl)c1)Nc1cc(NCc2cn3cc(C4CC4)ccc3n2)ccn1 [Example 128, (E)-1-(3-chlorobenzyl)-2-cyano-3-(4-(((6-cyclopropylimidazo[1,2-a]pyridin-2-yl)methyl)amino)pyridin-2-yl)guanidine], which EC50 [1] is on record?
The EC50 was 500 to 9000 nM.

CCOC(=O)NC(=N)c1cc(C)c(CNc2cc(OCc3cn4cc(C5CC5)ccc4n3)ncn2)c(C)c1 [Example 83, ethyl ((4-(((6-((6-cyclopropylimidazo[1,2-a]pyridin-2-yl)methoxy)pyrimidin-4-yl)amino)methyl)-3,5-dimethylphenyl)(imino)methyl)carbamate] was tested. Which EC50 [1] did it give?
The EC50 was 50 to 500 nM.

Which EC50 [1] does the source give for N=S(=O)(Nc1cc(NCc2cn3cc(C4CC4)ccc3n2)ncn1)C1CC1c1cccc(Cl)c1 (racemic) [Example 142, (SR,1SR,2RS)-2-(3-chlorophenyl)-N-(6-(((6-cyclopropylimidazo[1,2-a]pyridin-2-yl)methyl)amino)pyrimidin-4-yl)cyclopropane-1-sulfonimidamide] here?
The EC50 was 500 to 9000 nM.

How did the EC50 [1] turn out when O=C(Cn1ccc2ccc(Cl)cc21)Nc1cc(NCc2cn3cc(C4CC4)ccc3n2)ccn1 [Example 115, 2-(6-chloro-1H-indol-1-yl)-N-(4-(((6-cyclopropylimidazo[1,2-a]pyridin-2-yl)methyl)amino)pyridin-2-yl)acetamide] was run?
Its EC50 is 500 to 9000 nM.

Which EC50 [1] does the source give for Cc1cc(C(=N)N)cc(C)c1CNc1cc(NCc2cn3cc(C4CC4)ccc3n2)cnn1 [Example 98, 4-(((5-(((6-cyclopropylimidazo[1,2-a]pyridin-2-yl)methyl)amino)pyridazin-3-yl)amino)methyl)-3,5-dimethylbenzimidamide] here?
Its EC50 is ≤ 5 nM.

Cc1cc(C(=N)N)cc(C)c1CNc1cc(OCc2cn3cc(C4CC4)ccc3n2)ncn1 [Example 72, 4-(((6-((6-cyclopropylimidazo[1,2-a]pyridin-2-yl)methoxy)pyrimidin-4-yl)amino)methyl)-3,5-dimethylbenzimidamide formic acid salt] was tested. Which EC50 [1] did it give?
Its EC50 is ≤ 5 nM.

Which EC50 [1] does the source give for O=C(Cc1ncn2ccc(Cl)cc12)Nc1cc(NCc2cn3c(F)c(C4CC4)ccc3n2)ncn1 [Example 46, 2-(7-chloroimidazo[1,5-a]pyridin-1-yl)-N-(6-(((6-cyclopropyl-5-fluoro-imidazo[1,2-a]pyridin-2-yl)methyl)amino)pyrimidin-4-yl)acetamide] here?
The EC50 was ≤ 5 nM.
